Our source for the EC50 values is US20250243171A1, “QUINAZOLINE COMPOUNDS FOR TREATMENT OF DISEASE” (Arthrosi Therapeutics, Inc., priority 2021, published 2025).

Holding throughout (assay): EC50 assay: Ba/F3 stable cell proliferation (CCK-8, 72 h)
Common to all, as to format: cell-based

The target of test [1] is T1, Ba/F3 stable cells (Homo sapiens, UniProt P00533, T790M/L858R, cells depend on it).
T1 construct: EC50 Ba/F3-EGFR L858R-T790M; other: Ba/F3-EGFR L858R-T790M cells, 72 h, CCK-8
To be noted: Ba/F3-EGFR L858R-T790M cells. A digest of the protocol: (§1)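 Ba/F3 stable cells were seeded at 4,000 cells/90 μL/well in 96-well plates and held 2 h at 37° C. in 5% CO2, then given 10 μL of serially titrated compound (0.1% DMSO final). After 72 h at 37° C., CCK-8 reagent was added for 4 hours and absorbance read at 450 nm to derive EC50.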

The target of test [2] is T2, Ba/F3 stable cells (Homo sapiens, UniProt P00533, DUP767-769, cells depend on it).
T2 construct: EC50 Ba/F3-EGFR V769-D770insASV; other: Ba/F3-EGFR V769-D770insASV cells, 72 h, CCK-8
T2 sequence (P00533 with tags, fused parts or gaps DUP767-769): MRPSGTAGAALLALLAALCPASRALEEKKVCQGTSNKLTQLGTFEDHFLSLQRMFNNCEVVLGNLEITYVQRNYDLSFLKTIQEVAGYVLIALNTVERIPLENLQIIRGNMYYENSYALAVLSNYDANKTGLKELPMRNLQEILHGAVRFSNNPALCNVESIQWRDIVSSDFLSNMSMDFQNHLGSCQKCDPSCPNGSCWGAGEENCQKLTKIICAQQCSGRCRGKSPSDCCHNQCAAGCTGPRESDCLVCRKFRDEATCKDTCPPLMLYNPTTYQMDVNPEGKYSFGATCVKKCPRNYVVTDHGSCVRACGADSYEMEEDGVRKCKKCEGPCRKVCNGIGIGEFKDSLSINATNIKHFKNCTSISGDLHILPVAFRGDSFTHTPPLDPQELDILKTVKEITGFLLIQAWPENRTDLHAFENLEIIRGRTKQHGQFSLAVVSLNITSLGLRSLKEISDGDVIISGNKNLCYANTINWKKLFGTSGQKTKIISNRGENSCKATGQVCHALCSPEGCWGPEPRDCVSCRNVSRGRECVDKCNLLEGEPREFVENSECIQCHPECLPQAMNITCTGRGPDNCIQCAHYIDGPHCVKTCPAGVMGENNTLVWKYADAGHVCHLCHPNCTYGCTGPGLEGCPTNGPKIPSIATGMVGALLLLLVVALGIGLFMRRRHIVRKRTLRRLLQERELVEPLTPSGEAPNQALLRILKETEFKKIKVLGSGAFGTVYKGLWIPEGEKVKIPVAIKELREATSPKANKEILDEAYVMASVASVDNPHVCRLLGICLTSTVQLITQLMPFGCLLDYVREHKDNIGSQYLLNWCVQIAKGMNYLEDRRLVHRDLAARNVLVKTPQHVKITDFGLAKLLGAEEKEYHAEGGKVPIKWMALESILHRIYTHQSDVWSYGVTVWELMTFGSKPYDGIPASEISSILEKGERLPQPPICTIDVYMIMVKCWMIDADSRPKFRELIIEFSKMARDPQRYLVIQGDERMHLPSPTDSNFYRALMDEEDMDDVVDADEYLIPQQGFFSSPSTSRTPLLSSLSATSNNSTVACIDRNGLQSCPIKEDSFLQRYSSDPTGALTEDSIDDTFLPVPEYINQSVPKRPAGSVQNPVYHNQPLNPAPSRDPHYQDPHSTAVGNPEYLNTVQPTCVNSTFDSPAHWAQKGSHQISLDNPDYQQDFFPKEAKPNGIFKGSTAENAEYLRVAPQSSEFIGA
To be noted: Ba/F3-EGFR V769-D770insASV cells. A digest of the protocol: as §1

For test [3], the target named is T3, Ba/F3 stable cells (Homo sapiens, UniProt P00533, DUP771-773, cells depend on it).
T3 construct: EC50 Ba/F3-EGFR H773-V774insNPH; other: Ba/F3-EGFR H773-V774insNPH cells, 72 h, CCK-8
T3 sequence (P00533 with tags, fused parts or gaps DUP771-773): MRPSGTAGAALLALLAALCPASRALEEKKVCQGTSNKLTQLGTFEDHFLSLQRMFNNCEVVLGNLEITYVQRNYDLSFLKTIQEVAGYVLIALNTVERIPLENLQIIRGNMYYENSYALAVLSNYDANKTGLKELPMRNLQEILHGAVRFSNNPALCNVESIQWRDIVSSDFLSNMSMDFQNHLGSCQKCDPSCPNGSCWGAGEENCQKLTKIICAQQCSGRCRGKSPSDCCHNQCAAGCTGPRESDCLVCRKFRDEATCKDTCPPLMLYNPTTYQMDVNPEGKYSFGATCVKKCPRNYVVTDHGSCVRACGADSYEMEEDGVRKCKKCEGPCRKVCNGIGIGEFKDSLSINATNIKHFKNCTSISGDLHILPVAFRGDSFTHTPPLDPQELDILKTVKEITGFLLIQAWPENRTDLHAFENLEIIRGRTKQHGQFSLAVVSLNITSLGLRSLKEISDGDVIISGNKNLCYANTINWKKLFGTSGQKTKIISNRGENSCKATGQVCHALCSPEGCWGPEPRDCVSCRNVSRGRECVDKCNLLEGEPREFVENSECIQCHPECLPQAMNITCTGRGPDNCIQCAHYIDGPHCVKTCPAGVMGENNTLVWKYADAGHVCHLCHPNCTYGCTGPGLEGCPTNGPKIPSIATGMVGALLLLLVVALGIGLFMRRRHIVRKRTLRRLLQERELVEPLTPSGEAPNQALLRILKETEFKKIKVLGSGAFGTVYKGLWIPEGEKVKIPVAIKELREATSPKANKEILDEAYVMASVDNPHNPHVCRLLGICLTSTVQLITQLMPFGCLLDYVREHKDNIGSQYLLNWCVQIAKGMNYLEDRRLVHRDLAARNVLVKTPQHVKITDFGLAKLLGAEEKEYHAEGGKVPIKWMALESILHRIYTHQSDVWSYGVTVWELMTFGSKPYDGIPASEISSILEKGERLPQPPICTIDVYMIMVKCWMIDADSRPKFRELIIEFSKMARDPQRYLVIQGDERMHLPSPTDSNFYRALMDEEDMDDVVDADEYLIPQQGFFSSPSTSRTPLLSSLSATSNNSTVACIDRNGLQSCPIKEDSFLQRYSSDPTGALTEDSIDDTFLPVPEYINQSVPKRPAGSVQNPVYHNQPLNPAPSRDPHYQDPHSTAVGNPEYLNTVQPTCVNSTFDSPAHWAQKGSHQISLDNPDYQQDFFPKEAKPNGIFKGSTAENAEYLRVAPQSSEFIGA
To be noted: Ba/F3-EGFR H773-V774insNPH cells. An outline of the steps: as §1

For test [4], the target named is T4, Ba/F3 stable cells (Homo sapiens, UniProt P00533, DUP768-770, cells depend on it).
T4 construct: EC50 Ba/F3-EGFR D770-N771insSVD; other: Ba/F3-EGFR D770-N771insSVD cells, 72 h, CCK-8
To be noted: Ba/F3-EGFR D770-N771insSVD cells. A digest of the protocol: as §1

Test [5] deals with T5, Ba/F3 stable cells (Homo sapiens, UniProt P04626, DUP772-775, cells depend on it).
T5 construct: EC50 Ba/F3-HER2 A775-G776insYVMA; other: Ba/F3-HER2 A775-G776insYVMA cells, 72 h, CCK-8
T5 sequence (P04626 with tags, fused parts or gaps DUP772-775): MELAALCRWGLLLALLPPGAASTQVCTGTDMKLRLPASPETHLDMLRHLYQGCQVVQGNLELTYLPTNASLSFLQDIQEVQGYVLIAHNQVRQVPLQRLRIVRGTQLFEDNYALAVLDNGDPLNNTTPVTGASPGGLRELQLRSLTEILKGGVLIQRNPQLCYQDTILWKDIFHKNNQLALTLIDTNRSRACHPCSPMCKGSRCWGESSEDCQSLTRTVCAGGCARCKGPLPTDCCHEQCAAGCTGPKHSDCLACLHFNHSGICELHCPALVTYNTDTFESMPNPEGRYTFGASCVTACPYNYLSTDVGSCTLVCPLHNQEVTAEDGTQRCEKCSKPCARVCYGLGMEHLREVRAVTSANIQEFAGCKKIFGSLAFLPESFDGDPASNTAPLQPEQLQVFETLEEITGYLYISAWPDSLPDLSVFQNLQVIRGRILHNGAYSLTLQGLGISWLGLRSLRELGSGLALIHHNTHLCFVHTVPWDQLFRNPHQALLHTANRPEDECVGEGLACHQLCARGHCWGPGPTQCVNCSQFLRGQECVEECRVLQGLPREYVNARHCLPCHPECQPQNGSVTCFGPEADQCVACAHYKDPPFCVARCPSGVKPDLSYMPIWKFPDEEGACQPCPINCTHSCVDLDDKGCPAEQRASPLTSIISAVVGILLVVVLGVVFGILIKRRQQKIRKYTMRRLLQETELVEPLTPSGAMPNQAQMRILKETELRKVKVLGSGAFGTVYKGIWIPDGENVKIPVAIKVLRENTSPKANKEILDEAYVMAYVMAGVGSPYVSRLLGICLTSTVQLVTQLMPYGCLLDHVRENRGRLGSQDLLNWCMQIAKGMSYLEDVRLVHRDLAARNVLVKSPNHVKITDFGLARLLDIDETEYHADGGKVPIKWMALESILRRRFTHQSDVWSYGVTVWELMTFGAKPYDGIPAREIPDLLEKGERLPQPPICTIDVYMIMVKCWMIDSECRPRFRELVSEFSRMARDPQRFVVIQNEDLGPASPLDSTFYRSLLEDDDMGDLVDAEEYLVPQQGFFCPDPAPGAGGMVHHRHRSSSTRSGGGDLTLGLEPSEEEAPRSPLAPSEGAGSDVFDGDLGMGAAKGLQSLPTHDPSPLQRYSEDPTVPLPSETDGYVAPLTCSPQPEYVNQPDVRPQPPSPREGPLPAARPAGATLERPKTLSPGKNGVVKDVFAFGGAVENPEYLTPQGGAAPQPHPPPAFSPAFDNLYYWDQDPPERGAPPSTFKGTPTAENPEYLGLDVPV
To be noted: Ba/F3-HER2 A775-G776insYVMA cells. A digest of the protocol: as §1

Test [6] concerns the target T6, Ba/F3 stable cells (Homo sapiens, UniProt P00533, INS763FQEA, cells depend on it).
T6 construct: EC50 Ba/F3-EGFR A763-Y764insFQEA; other: Ba/F3-EGFR A763-Y764insFQEA cells, 72 h, CCK-8
To be noted: Ba/F3-EGFR A763-Y764insFQEA cells. A digest of the protocol:
as §1

The EC50 is the concentration needed to bring the measured effect to its halfway point. High values mean lower potency in that assay, low ones higher potency in that assay.

T1 sequence (P00533 whole entry T790M/L858R): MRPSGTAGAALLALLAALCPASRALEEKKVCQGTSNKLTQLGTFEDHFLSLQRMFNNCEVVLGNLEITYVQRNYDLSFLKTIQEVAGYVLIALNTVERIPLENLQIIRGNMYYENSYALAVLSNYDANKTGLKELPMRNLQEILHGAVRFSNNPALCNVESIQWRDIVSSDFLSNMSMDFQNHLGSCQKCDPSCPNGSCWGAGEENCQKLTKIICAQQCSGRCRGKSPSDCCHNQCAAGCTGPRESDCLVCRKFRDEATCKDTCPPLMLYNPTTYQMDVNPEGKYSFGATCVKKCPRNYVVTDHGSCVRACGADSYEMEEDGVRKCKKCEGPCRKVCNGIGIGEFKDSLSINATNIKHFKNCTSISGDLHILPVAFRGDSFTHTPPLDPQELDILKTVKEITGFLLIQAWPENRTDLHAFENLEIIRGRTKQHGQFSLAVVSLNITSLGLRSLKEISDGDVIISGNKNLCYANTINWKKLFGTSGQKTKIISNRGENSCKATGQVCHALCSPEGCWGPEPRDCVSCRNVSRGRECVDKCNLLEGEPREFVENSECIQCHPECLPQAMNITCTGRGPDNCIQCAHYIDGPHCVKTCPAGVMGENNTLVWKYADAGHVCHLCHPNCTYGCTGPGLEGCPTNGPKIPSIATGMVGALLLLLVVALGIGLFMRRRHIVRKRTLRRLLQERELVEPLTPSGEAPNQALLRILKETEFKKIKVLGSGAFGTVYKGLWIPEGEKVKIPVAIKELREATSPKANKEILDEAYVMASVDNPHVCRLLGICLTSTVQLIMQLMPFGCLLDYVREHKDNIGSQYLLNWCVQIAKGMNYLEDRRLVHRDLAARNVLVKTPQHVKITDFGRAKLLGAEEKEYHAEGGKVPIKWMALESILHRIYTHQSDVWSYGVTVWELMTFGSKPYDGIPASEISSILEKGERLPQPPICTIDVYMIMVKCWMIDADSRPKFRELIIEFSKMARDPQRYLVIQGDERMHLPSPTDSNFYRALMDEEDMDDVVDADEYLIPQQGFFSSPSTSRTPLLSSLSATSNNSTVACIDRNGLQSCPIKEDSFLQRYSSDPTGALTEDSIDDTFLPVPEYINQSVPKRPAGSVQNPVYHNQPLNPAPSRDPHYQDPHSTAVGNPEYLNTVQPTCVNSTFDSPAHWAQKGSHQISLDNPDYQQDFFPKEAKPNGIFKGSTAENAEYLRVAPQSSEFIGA

Turning to `C#CC(=O)N1C2CCC1CC(Oc1cc3c(Nc4cccc5ccccc45)ncnc3cc1OC)C2` (stereo not drawn) [Compound 60, 1-(3-((7-methoxy-4-(naphthalen-1-ylamino)quinazolin-6-yl)oxy)-8-azabicyclo[3.2.1]octan-8-yl)prop-2-yn-1-one], the EC50 at Ba/F3 stable cells [1] was not above 200 nM; on Ba/F3 stable cells [2], not above 200 nM; at Ba/F3 stable cells [3], not above 200 nM; at Ba/F3 stable cells [4], 200 to 1000 nM; at Ba/F3 stable cells [5] it was 200 to 1000 nM; on Ba/F3 stable cells [6] it was not above 200 nM.

For `C#CC(=O)N1CCCC(c2ccc3ncnc(Nc4ccc(Cl)c(Cl)c4F)c3c2)C1` (stereo not drawn) [Compound 61, 1-(3-(4-((3,4-dichloro-2-fluorophenyl)amino)quinazolin-6-yl)piperidin-1-yl)prop-2-yn-1-one], the EC50 is not above 200 nM on Ba/F3 stable cells [1]; not above 200 nM on Ba/F3 stable cells [2]; not above 200 nM on Ba/F3 stable cells [3]; not above 200 nM on Ba/F3 stable cells [4]; 200 to 1000 nM at Ba/F3 stable cells [5]; not above 200 nM at Ba/F3 stable cells [6].

In the case of `C#CC(=O)N1CCC=C(c2ccc3ncnc(Nc4ccc(Cl)c(Cl)c4F)c3c2)C1` [Compound 62, 1-(5-(4-((3,4-dichloro-2-fluorophenyl)amino)quinazolin-6-yl)-3,6-dihydropyridin-1(2H)-yl)prop-2-yn-1-one], the EC50 on Ba/F3 stable cells [1] was 200 to 1000 nM; on Ba/F3 stable cells [2], 200 to 1000 nM; at Ba/F3 stable cells [3], 200 to 1000 nM; at Ba/F3 stable cells [4] it was 200 to 1000 nM; on Ba/F3 stable cells [5], 200 to 1000 nM; at Ba/F3 stable cells [6] it was not above 200 nM.

On to `C#CC(=O)N1CCC=C(c2cc3c(Nc4ccc(Cl)c(Cl)c4F)ncnc3cc2OC)C1` [Compound 63, 1-(5-(4-((3,4-dichloro-2-fluorophenyl)amino)-7-methoxyquinazolin-6-yl)-3,6-dihydropyridin-1(2H)-yl)prop-2-yn-1-one], for which the EC50 at Ba/F3 stable cells [1] is not above 200 nM; on Ba/F3 stable cells [2], not above 200 nM; at Ba/F3 stable cells [3], not above 200 nM; on Ba/F3 stable cells [4], not above 200 nM; at Ba/F3 stable cells [5], 200 to 1000 nM; at Ba/F3 stable cells [6], not above 200 nM.

As to `C=CC(=O)N[C@H]1C[C@@H](Oc2cc3c(Nc4ccc(Cl)c(Cl)c4F)ncnc3cc2OC)C1` [Compound 66, N-((1s,3s)-3-((4-((3,4-dichloro-2-fluorophenyl)amino)-7-methoxyquinazolin-6-yl)oxy)cyclobutyl)acrylamide], the EC50 at Ba/F3 stable cells [1] is not above 200 nM; on Ba/F3 stable cells [2] it was not above 200 nM; at Ba/F3 stable cells [3], not above 200 nM; at Ba/F3 stable cells [4], 200 to 1000 nM; at Ba/F3 stable cells [5] it was not above 200 nM; on Ba/F3 stable cells [6] it was not above 200 nM.

Take `C=CC(=O)NC1CC(Oc2cc3c(Nc4ccc(C)c5c4CCC5)ncnc3cc2OC)C1` (stereo not drawn) [Compound 67, N-(3-((7-methoxy-4-((7-methyl-2,3-dihydro-1H-inden-4-yl)amino)quinazolin-6-yl)oxy)cyclobutyl)acrylamide]: the EC50 on Ba/F3 stable cells [1] is more than 1000 nM; at Ba/F3 stable cells [2], more than 1000 nM; at Ba/F3 stable cells [3], more than 1000 nM; at Ba/F3 stable cells [4], more than 1000 nM; at Ba/F3 stable cells [5], more than 1000 nM; on Ba/F3 stable cells [6], 200 to 1000 nM.

Regarding `C=CC(=O)NC1CC(Oc2cc3c(Nc4ccc(F)c5c4CCC5=O)ncnc3cc2OC)C1` (stereo not drawn) [Compound 68, N-(3-((4-((7-fluoro-1-oxo-2,3-dihydro-1H-inden-4-yl)amino)-7-methoxyquinazolin-6-yl)oxy)cyclobutyl)acrylamide], the EC50 on Ba/F3 stable cells [1], on Ba/F3 stable cells [2], on Ba/F3 stable cells [3], on Ba/F3 stable cells [4], at Ba/F3 stable cells [5] and on Ba/F3 stable cells [6] was more than 1000 nM throughout.

For `C=CC(=O)NC1CC(Oc2cc3c(Nc4ccc(F)c5c4CCC5O)ncnc3cc2OC)C1` (stereo not drawn) [Compound 69, N-(3-((4-((7-fluoro-1-hydroxy-2,3-dihydro-1H-inden-4-yl)amino)-7-methoxyquinazolin-6-yl)oxy)cyclobutyl)acrylamide], the EC50 on Ba/F3 stable cells [1], at Ba/F3 stable cells [2], at Ba/F3 stable cells [3], at Ba/F3 stable cells [4], on Ba/F3 stable cells [5] and on Ba/F3 stable cells [6] was more than 1000 nM throughout.

Consider `C=CC(=O)NC1CC(Oc2cc3c(Nc4ccc5c(c4)CCCC5=O)ncnc3cc2OC)C1` (stereo not drawn) [Compound 70, N-(3-((7-methoxy-4-((5-oxo-5,6,7,8-tetrahydronaphthalen-2-yl)amino)quinazolin-6-yl)oxy)cyclobutyl)acrylamide], for which the EC50 on Ba/F3 stable cells [1], on Ba/F3 stable cells [2], on Ba/F3 stable cells [3], at Ba/F3 stable cells [4], on Ba/F3 stable cells [5] and on Ba/F3 stable cells [6] was more than 1000 nM in each case.

For `C=CC(=O)NC1CC(Oc2cc3c(Nc4ccc5c(c4)CCCC5O)ncnc3cc2OC)C1` (stereo not drawn) [Compound 71, N-(3-((4-((5-hydroxy-5,6,7,8-tetrahydronaphthalen-2-yl)amino)-7-methoxyquinazolin-6-yl)oxy)cyclobutyl)acrylamide], the EC50 at Ba/F3 stable cells [1], at Ba/F3 stable cells [2], at Ba/F3 stable cells [3], at Ba/F3 stable cells [4], on Ba/F3 stable cells [5] and on Ba/F3 stable cells [6] was more than 1000 nM throughout.

Take `C=CC(=O)N(C)C1CC(Oc2cc3c(Nc4ccc(Cl)c(Cl)c4F)ncnc3cc2OC)C1` (stereo not drawn) [Compound 72, N-(3-((4-((3,4-dichloro-2-fluorophenyl)amino)-7-methoxyquinazolin-6-yl)oxy)cyclobutyl)-N-methylacrylamide]: the concentration giving a half-maximal response (EC50) at Ba/F3 stable cells [1] is 200 to 1000 nM; on Ba/F3 stable cells [2], not above 200 nM; at Ba/F3 stable cells [3] it was not above 200 nM; on Ba/F3 stable cells [4], not above 200 nM; on Ba/F3 stable cells [5], 200 to 1000 nM; on Ba/F3 stable cells [6], not above 200 nM.

Consider `C=CC(=O)NC1CC(Oc2cc3c(Nc4ccc(Cl)c(Cl)c4)ncnc3cc2OC)C1` (stereo not drawn) [Compound 73, N-(3-((4-((3,4-dichlorophenyl)amino)-7-methoxyquinazolin-6-yl)oxy)cyclobutyl)acrylamide], for which the EC50 is more than 1000 nM on Ba/F3 stable cells [1]; not above 200 nM at Ba/F3 stable cells [2]; 200 to 1000 nM on Ba/F3 stable cells [3]; 200 to 1000 nM at Ba/F3 stable cells [4]; 200 to 1000 nM on Ba/F3 stable cells [5]; not above 200 nM at Ba/F3 stable cells [6].

With `C=CC(=O)NC1CC(Oc2cc3c(Nc4cccc(Cl)c4F)ncnc3cc2OC)C1` (stereo not drawn) [Compound 74, N-(3-((4-((3-chloro-2-fluorophenyl)amino)-7-methoxyquinazolin-6-yl)oxy)cyclobutyl)acrylamide], the EC50 on Ba/F3 stable cells [1] is 200 to 1000 nM; on Ba/F3 stable cells [2], not above 200 nM; on Ba/F3 stable cells [3], not above 200 nM; at Ba/F3 stable cells [4], 200 to 1000 nM; on Ba/F3 stable cells [5], not above 200 nM; on Ba/F3 stable cells [6], not above 200 nM.

As to `C=CC(=O)NC1CC(Oc2cc3c(Nc4ccc(Cl)c(F)c4Cl)ncnc3cc2OC)C1` (stereo not drawn) [Compound 75, N-(3-((4-((2,4-dichloro-3-fluorophenyl)amino)-7-methoxyquinazolin-6-yl)oxy)cyclobutyl)acrylamide], the EC50 at Ba/F3 stable cells [1] is 200 to 1000 nM; at Ba/F3 stable cells [2] it was 200 to 1000 nM; on Ba/F3 stable cells [3], 200 to 1000 nM; on Ba/F3 stable cells [4], more than 1000 nM; at Ba/F3 stable cells [5], 200 to 1000 nM; on Ba/F3 stable cells [6], not above 200 nM.

With `C=CC(=O)NC1CC(Oc2cc3c(Nc4ccc(F)c(Cl)c4Cl)ncnc3cc2OC)C1` (stereo not drawn) [Compound 76, N-(3-((4-((2,3-dichloro-4-fluorophenyl)amino)-7-methoxyquinazolin-6-yl)oxy)cyclobutyl)acrylamide], the EC50 on Ba/F3 stable cells [1] is more than 1000 nM; at Ba/F3 stable cells [2] it was not above 200 nM; at Ba/F3 stable cells [3] it was 200 to 1000 nM; at Ba/F3 stable cells [4] it was 200 to 1000 nM; on Ba/F3 stable cells [5] it was 200 to 1000 nM; at Ba/F3 stable cells [6], not above 200 nM.

Take `C=CC(=O)N[C@H]1C[C@H](Oc2cc3c(Nc4ccccc4F)ncnc3cc2OC)C1` [Compound 77, N-(3-((4-((2-fluorophenyl)amino)-7-methoxyquinazolin-6-yl)oxy)cyclobutyl)acrylamide]: the EC50 on Ba/F3 stable cells [1] was more than 1000 nM; on Ba/F3 stable cells [2], 200 to 1000 nM; at Ba/F3 stable cells [3], 200 to 1000 nM; at Ba/F3 stable cells [4], more than 1000 nM; at Ba/F3 stable cells [5] it was 200 to 1000 nM; at Ba/F3 stable cells [6], not above 200 nM.

Take `C=CC(=O)NC1CC(Oc2cc3c(Nc4ccc(Cl)cc4F)ncnc3cc2OC)C1` (stereo not drawn) [Compound 78, N-(3-((4-((4-chloro-2-fluorophenyl)amino)-7-methoxyquinazolin-6-yl)oxy)cyclobutyl)acrylamide]: the half-maximal effective concentration (EC50) at Ba/F3 stable cells [1] was more than 1000 nM; at Ba/F3 stable cells [2], not above 200 nM; at Ba/F3 stable cells [3], 200 to 1000 nM; on Ba/F3 stable cells [4], more than 1000 nM; at Ba/F3 stable cells [5] it was 200 to 1000 nM; on Ba/F3 stable cells [6] it was not above 200 nM.
